Converted amounts (≈) assume the structure as drawn.
Experiments:
[1] = test system: multidrug-resistant (K1) strain of P. falciparum; experiment: In vitro asexual blood-stage antiplasmodium pLDH assay, K1 strain; type: cell-based; settings: Plasmodium falciparum, 72 h, n ≥ 3, read-out: In vitro antiplasmodium activity IC50 PfK1 strain
Procedure: Compounds were screened against multi-drug-resistant (K1) and sensitive (NF54) strains of P. falciparum in vitro using a parasite lactate dehydrogenase assay (pLDH) (the method is described fully in the Supporting Information). […]
In vitro Asexual Blood Stage Antiplasmodium Assay
Parasites were cultured as per the method of Trager and Jensen,1 with modifications. IC50 values were determined using parasite lactate dehydrogenase as a marker for survival (Makler […]
et al, 1993). The test samples were prepared to a 10 mmol/L stock solution in 100% DMSO.
Samples were tested as a suspension if not completely dissolved. Further dilutions to the desired starting concentration were freshly prepared in growth media on each occasion of the experiment. The standard antimalarial drugs chloroquine (CQ) and artesunate (Arts) were used as the reference drug in all experiments. A full dose-response was performed for all compounds in a 96-well plate to determine the concentration inhibiting 50% of parasite growth (IC50– value). Test samples were tested at a starting concentration of 6mmol/L, which was then serially diluted 2-fold in growth medium to generate the tested concentration range. The same dilution technique was used for all samples. CQ and Arts were tested from a starting concentration of 1µg/mL. The highest concentration of solvent to which the parasites were exposed was <0.1% and has no measurable effect on the parasite viability (data not shown).
The assay plate was incubated at 37 °C for 72h in a sealed gas chamber under 3% O2 and 4% CO2 with the balance being N2. After 72h, the wells in the assay plate were gently resuspended, and 15µL from each well was transferred to a duplicate plate containing 100µL of Malstat reagent and 25µL of nitroblue tetrazolium solution in each well. Plates were left to develop for 20 minutes in the dark and then absorbance of each well was quantified using a spectrophotometer at 620nm wavelength.
The remaining population of parasites at each concentration of the test compound was determined by comparing the absorbance of each well to the absorbance of a well containing […]
the drug-free control. […]
The initial 100 µg/mL solution is serially diluted 10-

Solubility = type: physicochemical; settings: pH 6.5, aqueous buffer
Source text: Table 1 In Vitro Antiplasmodium Activity, Cytotoxicity, BHIA, and Solubility | column: Solubility pH 6.5, μM

[2] = In vitro microsomal stability, mouse liver microsomes; type: in vitro ADME; settings: 1 μM, 0.4 mg/mL protein
Procedure: (§1) Xenotech, Kansas, USA), suspended in 0.1 M phosphate buffer (pH 7.4). (Details of this assay are described in the Supporting Information.) page 20: fold to attain six assay concentrations of 100-0.001 μg/mL. […] was used as the reference compound in this assay. The highest concentration of DMSO, which was used as the negative control, had no measurable effect on cell viability. After 44 hours of exposure of the cells to the test compounds, a solution of MTT was added. This was followed by an additional 4 hours of incubation at 37 °C. The assay plates were centrifuged, medium removed, and DMSO was added to the crystals. The amount of formazan was ascertained by measuring the absorbance at 540 nm. GraphPad Prism software was then used to generate IC50 values through a non-linear dose-response curve analysis. β-Hematin Inhibition Assay 20 mM stock solutions of controls and test compounds were made in DMSO. A solution […] was added to every well in columns 1-11 of a 96-well plate. 140 μL of water and 40 μL of 305.5 μM NP-40 were added to column 12 to mediate the formation of beta-hematin. 20 μL of test compounds (20 mM) were added to column 12 and 100 μL of this solution serially diluted to column 2, leaving column 1 blank (0 μM of test compound). 178.8 μL aliquot of hematin stock was suspended in 20 ml of a 1 M acetate buffer at pH 4.9. 100 μL of this hematin suspension was then added into each well, and the plates were incubated for ±5 hrs at 37°C. Subsequently, 32 μL of pyridine solution (20% water, 20% acetone, 10% 2M HEPES buffer at pH 7.4 and 50% pyridine) and 60 μL of acetone were added to all wells. The absorbances of plate wells were recorded at 405 nm on a SpectraMax plate reader. Sigmoidal dose-response curves with variable slopes were fitted to the absorbance data using GraphPad Prism to obtain the IC50 values for each compound. In vitro Microsomal Stability Assay The in vitro microsomal stability assay was performed in duplicate in a 96-well micro titre […] individually in human (pool of 50, mixed gender), rat (pool of 711, male Sprague Dawley) and mouse (pool of 1634, male CD1) liver microsomes (final protein concentration of 0.4 mg/mL; Xenotech, Kansas, USA), suspended in 0.1M phosphate buffer (pH 7.4). Incubations were S20 page 21: started by addition of NADPH (1 mM) as cofactor and shaken for 30 minutes at 37 °C. The reactions were then quenched by adding 300 μL of ice-cold acetonitrile containing internal standard (carbamazepine, 0.0236 μg/mL) and centrifuged. The supernatant was transferred to a fresh 96-well plate and analysed by LC-MS/MS (Agilent Rapid Resolution HPLC, AB SCIEX 4500 MS). The relative loss of parent compound over time was monitored and plots (concentration vs. time) were prepared per compound to determine the first order rate constant for compound depletion. This was in turn used to calculate half-life, in vitro intrinsic clearance and in vivo hepatic extraction ratio.6 Metabolite Identification Studies […] microsomes (MLM, male mouse CD1, Lot No. 1510043, Xenotech), magnesium chloride (5 mM) and NADPH (1 mM) in sodium phosphate buffer (100 mM, pH 7.4) for 60 minutes while shaking. The samples were then prepared by ice-cold acetonitrile precipitation, centrifuged, and filtered for LC-MS/MS analysis. […] Fluorescence Live-cell Microscopy […] […]

[3] = In vitro microsomal stability, rat liver microsomes; type: in vitro ADME; settings: 1 μM, 0.4 mg/mL protein
Procedure: as §1

Row | IC50 [1] [nM] | solubility (Solubility) [µM] | Microsomal EH (hepatic extraction ratio), mouse [2] | Microsomal EH (hepatic extraction ratio), rat [3] | Compound
1 | 6000 | 200 (≈ 80 µg/mL) | 0.90 | 0.73 | CCN(CCNc1cc2[nH]c(C3(C)CC3)nc2cn1)Cc1ccc(Cl)cc1O [Compound 6, 5-Chloro-2-((ethyl(2-((2-(1-methylcyclopropyl)-1H-imidazo[4,5-c]pyridin-6-yl)amino)ethyl)amino)methyl)phenol]
2 | 480 | 25 (≈ 9.65 µg/mL) | 0.81 | 0.73 | CCN(CCNc1cc2[nH]c(C3CC3)nc2cn1)Cc1ccc(Cl)cc1O [Compound 5, 5-Chloro-2-(((2-((2-cyclopropyl-1H-imidazo[4,5-c]pyridin-6-yl)amino)ethyl)(ethyl)amino)methyl)phenol]
3 | 100 | 65 (≈ 31.8 µg/mL) | 0.81 | 0.70 | CCN(CCNc1cc2[nH]c(-c3cccc(C(F)(F)F)c3)nc2cn1)Cc1ccc(Cl)cc1O [Compound 14, 5-Chloro-2-((ethyl(2-((2-(3-(trifluoromethyl)phenyl)-1H-imidazo[4,5-c]pyridin-6-yl)amino)ethyl)amino)methyl)phenol]
4 | 1350 | 15 (≈ 6.21 µg/mL) | 0.88 | 0.75 | CCN(CCNc1cc2[nH]c(C3CCCC3)nc2cn1)Cc1ccc(Cl)cc1O [Compound 1, 5-Chloro-2-(((2-((2-cyclopentyl-1H-imidazo[4,5-c]pyridin-6-yl)amino)ethyl)(ethyl)amino)methyl)phenol]
5 | 360 | 140 (≈ 68.7 µg/mL) | 0.84 | 0.78 | CCN(CCNc1cc2[nH]c(-c3ccc(C(F)(F)F)nc3)nc2cn1)Cc1ccc(Cl)cc1O [Compound 19, 5-Chloro-2-((ethyl(2-((2-(6-(trifluoromethyl)pyridin-3-yl)-1H-imidazo[4,5-c]pyridin-6-yl)amino)ethyl)amino)methyl)phenol]

From publication PMC10111423, “Antimalarial Imidazopyridines Incorporating an Intramolecular Hydrogen Bonding Motif: Medicinal Chemistry and Mechanistic Studies” (ACS Infectious Diseases, 2023)
